# Source: US20220323406A1, “METHODS AND COMPOSITIONS FOR DIFFERENTIATING STEM CELLS” (Massachusetts Institute of Technology, priority 2019, published 2022)
# Legend:
# [1] = test system: ENR+CD organoids (ISC to Paneth cell differentiation); assay: Primary screen: basal (non-stimulated) lysozyme secretion LYZ.NS, 2.5-D 384-well ENR+CD organoid differentiation; assay type: cell-based, mouse; conditions: primary screen; for Z.LYZ.NS: standard z score
# Source text: (§1) High-throughput screening.
# [2] = test system: ENR+CD organoids (ISC to Paneth cell differentiation); assay: Primary screen: CCh-stimulated lysozyme secretion LYZ.S, 2.5-D 384-well ENR+CD organoid differentiation; assay type: cell-based, mouse; conditions: primary screen
# Source text: as §1
# ENR+CD organoids = assay: Primary screen: ATP (CellTiter-Glo 3D, CTG) cell number/viability, 2.5-D 384-well ENR+CD organoids; conditions: primary screen; for Z.CTG: standard z score;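 for all read-outs here: compounds given at plating and again on day 3 over a 6-day differentiation from ENR+CV stem-cell-enriched precursors, ATP measured on day 6, plate median as control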
SMILES,Dose.FC.LYZ.NS (log2 fold change) ([1]; dose 0.08 uM),Z.LYZ.NS (standard z score) ([1]; dose 0.08 uM),Dose.FC.LYZ.NS (log2 fold change) ([1]; dose 0.40 uM),Z.LYZ.NS (standard z score) ([1]; dose 0.40 uM),Dose.FC.LYZ.NS (log2 fold change) ([1]; dose 2.00 uM),Z.LYZ.NS (standard z score) ([1]; dose 2.00 uM),Dose.FC.LYZ.NS (log2 fold change) ([1]; dose 10.00 uM),Z.LYZ.NS (standard z score) ([1]; dose 10.00 uM),Dose.FC.LYZ.S (log2 fold change) ([2]; dose 0.08 uM),Dose.FC.LYZ.S (log2 fold change) ([2]; dose 0.40 uM),Dose.FC.LYZ.S (log2 fold change) ([2]; dose 2.00 uM),Dose.FC.LYZ.S (log2 fold change) ([2]; dose 10.00 uM),Dose.FC.CTG (log2 fold change) (ENR+CD organoids; dose 0.08 uM),Z.CTG (standard z score) (ENR+CD organoids; dose 0.08 uM),Dose.FC.CTG (log2 fold change) (ENR+CD organoids; dose 0.40 uM),Z.CTG (standard z score) (ENR+CD organoids; dose 0.40 uM),Dose.FC.CTG (log2 fold change) (ENR+CD organoids; dose 2.00 uM),Z.CTG (standard z score) (ENR+CD organoids; dose 2.00 uM),Dose.FC.CTG (log2 fold change) (ENR+CD organoids; dose 10.00 uM),Z.CTG (standard z score) (ENR+CD organoids; dose 10.00 uM),also measured
CC(C)NC[C@@H](C(=O)N1CCN(c2ncnc3c2[C@H](C)C[C@H]3O)CC1)c1ccc(Cl)cc1 [GDC-0068],–,–,–,–,–,–,–,–,–,–,–,–,–,–,–,–,–,–,–,–,Dose.FC.LYZ.NS ([1]; dose 0.08 uM): 0.036 log2 fold change; Dose.FC.LYZ.NS ([1]; dose 0.40 uM): 0.054 log2 fold change; Dose.FC.LYZ.NS ([1]; dose 2.00 uM): −0.077 log2 fold change; Dose.FC.LYZ.NS ([1]; dose 10.00 uM): −0.185 log2 fold change; Z.LYZ.NS ([1]; dose 0.08 uM): 0.311; Z.LYZ.NS ([1]; dose 0.40 uM): 0.469; Z.LYZ.NS ([1]; dose 2.00 uM): −0.675; Z.LYZ.NS ([1]; dose 10.00 uM): −1.613; Dose.FC.LYZ.S ([2]; dose 0.08 uM): 0.076 log2 fold change; Dose.FC.LYZ.S ([2]; dose 0.40 uM): 0.087 log2 fold change; Dose.FC.LYZ.S ([2]; dose 2.00 uM): −0.059 log2 fold change; Dose.FC.LYZ.S ([2]; dose 10.00 uM): −0.319 log2 fold change; Dose.FC.CTG (ENR+CD organoids; dose 0.08 uM): 0.042 log2 fold change; Dose.FC.CTG (ENR+CD organoids; dose 0.40 uM): 0.118 log2 fold change; Dose.FC.CTG (ENR+CD organoids; dose 2.00 uM): 0.184 log2 fold change; Dose.FC.CTG (ENR+CD organoids; dose 10.00 uM): −0.100 log2 fold change; Z.CTG (ENR+CD organoids; dose 0.08 uM): 0.099; Z.CTG (ENR+CD organoids; dose 0.40 uM): 0.283; Z.CTG (ENR+CD organoids; dose 2.00 uM): 0.439; Z.CTG (ENR+CD organoids; dose 10.00 uM): −0.238
CN[C@@H](C)C(=O)N[C@H](C(=O)N1CCC[C@H]1C(=O)Nc1snnc1-c1ccccc1)C1CCCCC1 [GDC-0152],–,–,–,–,–,–,–,–,–,–,–,–,–,–,–,–,–,–,–,–,Dose.FC.LYZ.NS ([1]; dose 0.08 uM): −0.002 log2 fold change; Dose.FC.LYZ.NS ([1]; dose 0.40 uM): −0.020 log2 fold change; Dose.FC.LYZ.NS ([1]; dose 2.00 uM): 0.083 log2 fold change; Dose.FC.LYZ.NS ([1]; dose 10.00 uM): 0.103 log2 fold change; Z.LYZ.NS ([1]; dose 0.08 uM): −0.013; Z.LYZ.NS ([1]; dose 0.40 uM): −0.176; Z.LYZ.NS ([1]; dose 2.00 uM): 0.724; Z.LYZ.NS ([1]; dose 10.00 uM): 0.900; Dose.FC.LYZ.S ([2]; dose 0.08 uM): −0.020 log2 fold change; Dose.FC.LYZ.S ([2]; dose 0.40 uM): −0.036 log2 fold change; Dose.FC.LYZ.S ([2]; dose 2.00 uM): −0.057 log2 fold change; Dose.FC.LYZ.S ([2]; dose 10.00 uM): −0.009 log2 fold change; Dose.FC.CTG (ENR+CD organoids; dose 0.08 uM): 0.151 log2 fold change; Dose.FC.CTG (ENR+CD organoids; dose 0.40 uM): 0.158 log2 fold change; Dose.FC.CTG (ENR+CD organoids; dose 2.00 uM): 0.003 log2 fold change; Dose.FC.CTG (ENR+CD organoids; dose 10.00 uM): 0.241 log2 fold change; Z.CTG (ENR+CD organoids; dose 0.08 uM): 0.361; Z.CTG (ENR+CD organoids; dose 0.40 uM): 0.377; Z.CTG (ENR+CD organoids; dose 2.00 uM): 0.008; Z.CTG (ENR+CD organoids; dose 10.00 uM): 0.575
CS(=O)(=O)N1CCN(Cc2cc3nc(-c4cccc5[nH]ncc45)nc(N4CCOCC4)c3s2)CC1 [GDC-0941],–,–,–,–,–,–,–,–,–,–,–,–,–,–,–,–,–,–,–,–,Dose.FC.LYZ.NS ([1]; dose 0.08 uM): 0.008 log2 fold change; Dose.FC.LYZ.NS ([1]; dose 0.40 uM): −0.013 log2 fold change; Dose.FC.LYZ.NS ([1]; dose 2.00 uM): −0.128 log2 fold change; Dose.FC.LYZ.NS ([1]; dose 10.00 uM): −0.156 log2 fold change; Z.LYZ.NS ([1]; dose 0.08 uM): 0.070; Z.LYZ.NS ([1]; dose 0.40 uM): −0.112; Z.LYZ.NS ([1]; dose 2.00 uM): −1.113; Z.LYZ.NS ([1]; dose 10.00 uM): −1.362; Dose.FC.LYZ.S ([2]; dose 0.08 uM): 0.018 log2 fold change; Dose.FC.LYZ.S ([2]; dose 0.40 uM): −0.076 log2 fold change; Dose.FC.LYZ.S ([2]; dose 2.00 uM): −0.248 log2 fold change; Dose.FC.LYZ.S ([2]; dose 10.00 uM): −0.257 log2 fold change; Dose.FC.CTG (ENR+CD organoids; dose 0.08 uM): 0.283 log2 fold change; Dose.FC.CTG (ENR+CD organoids; dose 0.40 uM): 0.022 log2 fold change; Dose.FC.CTG (ENR+CD organoids; dose 2.00 uM): −0.197 log2 fold change; Dose.FC.CTG (ENR+CD organoids; dose 10.00 uM): −1.223 log2 fold change; Z.CTG (ENR+CD organoids; dose 0.08 uM): 0.677; Z.CTG (ENR+CD organoids; dose 0.40 uM): 0.053; Z.CTG (ENR+CD organoids; dose 2.00 uM): −0.472; Z.CTG (ENR+CD organoids; dose 10.00 uM): −2.921
NC(=O)c1cccc(-c2cc(Nc3ccc(OC(F)(F)F)cc3)ncn2)c1 [GNF-2],0.159,1.386,−0.024,−0.206,0.012,0.102,−0.033,−0.286,0.121,0.001,0.046,−0.015,0.157,0.376,0.090,0.214,0.074,0.176,0.100,0.240,–
CC1=C(C(=O)Nc2cc3cn[nH]c3cc2F)C(c2ccc(C(F)(F)F)cc2)CC(=O)N1 (stereo not shown) [GSK429286A],0.137,1.197,0.128,1.117,0.140,1.222,0.059,0.517,0.247,0.283,0.245,0.099,0.527,1.260,0.545,1.302,0.488,1.166,0.370,0.883,–
C[C@@H](Oc1cc(-n2cnc3ccc(CN4CCN(C)CC4)cc32)sc1C(N)=O)c1ccccc1C(F)(F)F [GSK461364],0.078,0.682,−0.096,−0.834,−0.246,−2.138,−0.287,−2.498,0.112,−0.093,−0.352,−0.390,0.160,0.383,−0.154,−0.368,−0.628,−1.500,−0.621,−1.484,–
CCn1c(-c2nonc2N)nc2c(C#CC(C)(C)O)ncc(OC[C@H]3CCCNC3)c21 [GSK690693],0.045,0.388,0.047,0.409,0.122,1.060,−0.080,−0.698,0.019,0.155,0.124,−0.153,0.129,0.308,0.197,0.470,−0.027,−0.064,−0.182,−0.434,–
CC(C)c1noc(N2CCC(COc3ccc(-c4ccc(S(C)(=O)=O)cc4)nc3)CC2)n1 [GSK1292263],0.078,0.681,0.050,0.434,0.028,0.240,0.020,0.173,0.111,0.101,0.060,0.027,0.161,0.384,0.192,0.458,0.224,0.535,0.196,0.468,–
